Reference: PubChem BioAssay AID256 (DTP/NCI, 2004)
Values joined by “and” are separate entries in the source; they are usually repeats but may differ in a detail not shown here. Identical values can stand only once. Inconclusive results and toxic doses are left out.

Tested on: CD2F1 mice, L1210 leukemia ip, survival T/C
Test: NCI In Vivo Anticancer Drug Screen. Data for tumor model L1210 Leukemia (intraperitoneal) in CD2F1 (CDF1) mice
Conditions: higher = longer survival
Procedure, shortened: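 Read-out first: treated-group measurement over vehicle-control measurement, expressed as a ratio. Animals bore a transplanted tumor line and were dosed with compound or vehicle.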

[1] = endpoint: mean survival time, dose: 100.0 mg/kg/injection, schedule: Q04DX003 (ip), vehicle: saline with Tween-80
[2] = endpoint: mean survival time, dose: 200.0 mg/kg/injection, schedule: Q04DX003 (ip), vehicle: saline with Tween-80
[3] = endpoint: mean survival time, dose: 400.0 mg/kg/injection, schedule: Q04DX003 (ip), vehicle: saline with Tween-80
[4] = endpoint: mean survival time, dose: 100.0 mg/kg/injection, schedule: Q01DX001 (ip), vehicle: saline with Tween-80
[5] = endpoint: mean survival time, dose: 200.0 mg/kg/injection, schedule: Q01DX001 (ip), vehicle: saline with Tween-80
[6] = endpoint: mean survival time, dose: 400.0 mg/kg/injection, schedule: Q01DX001 (ip), vehicle: saline with Tween-80
[7] = endpoint: mean survival time, dose: 100.0 mg/kg/injection, schedule: Q01DX009 (ip), vehicle: saline with Tween-80
[8] = endpoint: mean survival time, dose: 200.0 mg/kg/injection, schedule: Q01DX009 (ip), vehicle: saline with Tween-80
[9] = endpoint: mean survival time, dose: 50.0 mg/kg/injection, schedule: Q01DX009 (ip), vehicle: saline with Tween-80

Question: For `COc1ccc(N2CC=C(c3ccccc3)OP2(=O)N(CCCl)CCCl)cc1` (stereo unspecified), which T/C (endpoint: mean survival time, dose: 31.25 mg/kg/injection, schedule: Q01DX001 (ip), vehicle: saline) is on record?
Answer: 102 % of control

Question: And the T/C (endpoint: mean survival time, dose: 62.5 mg/kg/injection, schedule: Q01DX001 (ip), vehicle: saline)?
Answer: 100 % of control

Question: And the T/C (endpoint: mean survival time, dose: 125.0 mg/kg/injection, schedule: Q01DX001 (ip), vehicle: saline)?
Answer: 100 % of control

Question: What about the T/C (endpoint: mean survival time, dose: 250.0 mg/kg/injection, schedule: Q01DX001 (ip), vehicle: saline) of the same compound?
Answer: 100 % of control

Question: What about the T/C (endpoint: mean survival time, dose: 500.0 mg/kg/injection, schedule: Q01DX001 (ip), vehicle: saline) of the same compound?
Answer: 100 % of control

Question: Which T/C [1] does the source give for `Cc1ccc(NC(=O)Nc2ccccc2C(F)(F)F)cc1NC(=O)Nc1ccccc1C(F)(F)F` here?
Answer: 96 % of control

Question: What about the T/C [2] of the same compound?
Answer: 98 % of control

Question: And the T/C [3]?
Answer: 104 % of control

Question: How did the T/C [4] turn out when `O=S(=O)(Nc1ccc(Cc2ccc(NS(=O)(=O)c3ccccc3)cc2)cc1)c1ccccc1` was run?
Answer: 88 % of control

Question: What about the T/C [5] of the same compound?
Answer: 90 % of control

Question: And the T/C [6]?
Answer: 88 % of control

Question: What does the source list for `Cc1cc(N(CC(C)Cl)CC(C)Cl)ccc1N=Nc1ccccc1C(=O)O` (stereo unspecified)?
Answer: T/C (endpoint: mean survival time, dose: 1.56 mg/kg/injection, schedule: Q01DX009 (ip), vehicle: Klucel (hydroxypropylcellulose) (HPC)): 104 % of control; T/C (endpoint: mean survival time, dose: 3.12 mg/kg/injection, schedule: Q01DX009 (ip), vehicle: Klucel (hydroxypropylcellulose) (HPC)): 104 % of control; T/C (endpoint: mean survival time, dose: 6.25 mg/kg/injection, schedule: Q01DX009 (ip), vehicle: Klucel (hydroxypropylcellulose) (HPC)): 117 % of control and 109 % of control; T/C (endpoint: mean survival time, dose: 12.5 mg/kg/injection, schedule: Q01DX009 (ip), vehicle: Klucel (hydroxypropylcellulose) (HPC)): 111 % of control

Question: What does the source list for `CCCCCCC[CH2][Sn]1([CH2]CCCCCCC)[O]C2C(CO)OC(n3cnc4c(=O)[nH]c(N)nc43)C2[O]1` (stereo unspecified)?
Answer: T/C (endpoint: mean survival time, dose: 1.56 mg/kg/injection, schedule: Q01DX005 (ip), vehicle: other): 96 % of control; T/C (endpoint: mean survival time, dose: 3.13 mg/kg/injection, schedule: Q01DX005 (ip), vehicle: other): 98 % of control; T/C (endpoint: mean survival time, dose: 6.25 mg/kg/injection, schedule: Q01DX005 (ip), vehicle: other): 102 % of control; T/C (endpoint: mean survival time, dose: 12.5 mg/kg/injection, schedule: Q01DX005 (ip), vehicle: other): 104 % of control and 106 % of control

Question: For `Nc1c([N+](=O)[O-])ccc2ccccc12`, which T/C [7] is on record?
Answer: 95 % of control

Question: What about the T/C [1] of the same compound?
Answer: 93 % of control

Question: And the T/C [8]?
Answer: 93 % of control

Question: And the T/C [2]?
Answer: 93 % of control

Question: What about the T/C (endpoint: mean survival time, dose: 400.0 mg/kg/injection, schedule: Q01DX009 (ip), vehicle: saline with Tween-80) of the same compound?
Answer: 92 % of control

Question: What about the T/C [3] of the same compound?
Answer: 92 % of control

Question: With `CC(C)CC(Br)C(=O)NCC(=O)O` (stereo unspecified) as the compound, how does the T/C [1] read?
Answer: 95 % of control

Question: And the T/C [2]?
Answer: 113 % of control

Question: What about the T/C [3] of the same compound?
Answer: 105 % of control

Question: `CC(=O)CCS(=O)(=O)O` was tested. Which T/C [4] did it give?
Answer: 92 % of control

Question: What about the T/C [5] of the same compound?
Answer: 95 % of control

Question: What about the T/C [6] of the same compound?
Answer: 88 % of control

Question: What does the source list for `C[C@]12CC[C@H](O)C[C@@H]1CC[C@@H]1[C@@H]2C(=O)C[C@@]2(C)[C@H]1CC[C@]2(O)C(=O)CBr`?
Answer: T/C (endpoint: mean survival time, dose: 100.0 mg/kg/injection, schedule: Q01DX009 (sc), vehicle: steriod suspending solution): 97 % of control; T/C (endpoint: mean survival time, dose: 100.0 mg/kg/injection, schedule: Q04DX003 (sc), vehicle: steriod suspending solution): 97 % of control; T/C (endpoint: mean survival time, dose: 200.0 mg/kg/injection, schedule: Q01DX009 (sc), vehicle: steriod suspending solution): 94 % of control; T/C (endpoint: mean survival time, dose: 200.0 mg/kg/injection, schedule: Q04DX003 (sc), vehicle: steriod suspending solution): 95 % of control; T/C (endpoint: mean survival time, dose: 400.0 mg/kg/injection, schedule: Q01DX009 (sc), vehicle: steriod suspending solution): 90 % of control; T/C (endpoint: mean survival time, dose: 400.0 mg/kg/injection, schedule: Q04DX003 (sc), vehicle: steriod suspending solution): 95 % of control

Question: `O=c1cc2c(=O)oc3cc(O)c(O)oc3c2c(O)c1O` was tested. Which T/C (endpoint: mean survival time, dose: 100.0 mg/kg/injection, schedule: Q01DX001 (ip), vehicle: saline) did it give?
Answer: 101 % of control

Question: And the T/C (endpoint: mean survival time, dose: 200.0 mg/kg/injection, schedule: Q01DX001 (ip), vehicle: saline)?
Answer: 98 % of control

Question: What about the T/C (endpoint: mean survival time, dose: 400.0 mg/kg/injection, schedule: Q01DX001 (ip), vehicle: saline) of the same compound?
Answer: 98 % of control

Question: What does the source list for `CCOC(=O)/C(N=O)=C(/C)O`?
Answer: T/C (endpoint: mean survival time, dose: 100.0 mg/kg/injection, schedule: Q01DX009 (ip), vehicle: saline): 96 % of control; T/C (endpoint: mean survival time, dose: 200.0 mg/kg/injection, schedule: Q01DX009 (ip), vehicle: saline): 101 % of control; T/C (endpoint: mean survival time, dose: 400.0 mg/kg/injection, schedule: Q01DX009 (ip), vehicle: saline): 110 % of control

Question: With `CCOC(=O)/C=C/C(=O)[O-].CCOC(=O)/C=C/C(=O)[O-].NC1CCCCC1N.[Pt+4]` as the compound, how does the T/C (endpoint: median survival time, dose: 3.12 mg/kg/injection, schedule: Q04DX003 (ip), vehicle: saline with Tween-80) read?
Answer: 101 % of control and 103 % of control

Question: And the T/C (endpoint: median survival time, dose: 6.25 mg/kg/injection, schedule: Q04DX003 (ip), vehicle: saline with Tween-80)?
Answer: 103 % of control and 108 % of control

Question: What about the T/C (endpoint: median survival time, dose: 12.5 mg/kg/injection, schedule: Q04DX003 (ip), vehicle: saline with Tween-80) of the same compound?
Answer: 113 % of control and 112 % of control

Question: What about the T/C (endpoint: median survival time, dose: 25.0 mg/kg/injection, schedule: Q04DX003 (ip), vehicle: saline with Tween-80) of the same compound?
Answer: 123 % of control

Question: And the T/C (endpoint: median survival time, dose: 100.0 mg/kg/injection, schedule: Q04DX003 (ip), vehicle: saline with Tween-80)?
Answer: 164 % of control

Question: What about the T/C (endpoint: median survival time, dose: 200.0 mg/kg/injection, schedule: Q04DX003 (ip), vehicle: saline with Tween-80) of the same compound?
Answer: 166 % of control and 333 % of control

Question: Which T/C (endpoint: mean survival time, dose: 50.0 mg/kg/injection, schedule: Q04DX002 (ip), vehicle: saline with Tween-80) does the source give for `CC(CN=Cc1ccccc1N)N=Cc1ccccc1N` (stereo unspecified) here?
Answer: 93 % of control

Question: And the T/C (endpoint: mean survival time, dose: 100.0 mg/kg/injection, schedule: Q04DX002 (ip), vehicle: saline with Tween-80)?
Answer: 97 % of control

Question: And the T/C (endpoint: mean survival time, dose: 200.0 mg/kg/injection, schedule: Q04DX002 (ip), vehicle: saline with Tween-80)?
Answer: 97 % of control

Question: What about the T/C (endpoint: mean survival time, dose: 400.0 mg/kg/injection, schedule: Q04DX002 (ip), vehicle: saline with Tween-80) of the same compound?
Answer: 113 % of control

Question: With `CN(C)S(=O)(=O)c1ccccc1C(O)(c1ccccc1)c1ccccc1` (tested in a mixture with another compound) as the compound, how does the T/C [1] read?
Answer: 92 % of control

Question: What about the T/C [2] of the same compound?
Answer: 87 % of control

Question: And the T/C [3]?
Answer: 98 % of control

Question: For `CCOC(=O)C1CC1C(=O)OC` (stereo unspecified), which T/C [9] is on record?
Answer: 90 % of control

Question: What about the T/C [7] of the same compound?
Answer: 88 % of control

Question: And the T/C [8]?
Answer: 92 % of control

Question: Which T/C [1] does the source give for `COc1ccc(NCC(=O)O)c([N+](=O)[O-])c1` here?
Answer: 91 % of control

Question: What about the T/C [2] of the same compound?
Answer: 101 % of control

Question: For `CC(=O)N(C)[Si](C)(C)C`, which T/C [4] is on record?
Answer: 96 % of control

Question: And the T/C (endpoint: mean survival time, dose: 100.0 mg/kg/injection, schedule: Q01DX009 (ip), vehicle: saline sonified)?
Answer: 98 % of control

Question: What about the T/C (endpoint: mean survival time, dose: 100.0 mg/kg/injection, schedule: Q04DX003 (ip), vehicle: saline) of the same compound?
Answer: 98 % of control

Question: And the T/C [5]?
Answer: 100 % of control

Question: What about the T/C (endpoint: mean survival time, dose: 200.0 mg/kg/injection, schedule: Q01DX009 (ip), vehicle: saline sonified) of the same compound?
Answer: 96 % of control

Question: And the T/C (endpoint: mean survival time, dose: 200.0 mg/kg/injection, schedule: Q04DX003 (ip), vehicle: saline)?
Answer: 97 % of control

Question: And the T/C [6]?
Answer: 106 % of control

Question: What about the T/C (endpoint: mean survival time, dose: 400.0 mg/kg/injection, schedule: Q01DX009 (ip), vehicle: saline sonified) of the same compound?
Answer: 96 % of control

Question: And the T/C (endpoint: mean survival time, dose: 400.0 mg/kg/injection, schedule: Q04DX003 (ip), vehicle: saline)?
Answer: 101 % of control

Question: For `O=C(c1ccccc1)N1CC2CC3OC3c3cccc1c32` (stereo unspecified), which T/C [9] is on record?
Answer: 102 % of control

Question: What about the T/C [7] of the same compound?
Answer: 98 % of control

Question: What about the T/C [8] of the same compound?
Answer: 94 % of control

Question: What does the source list for `O=C(Nc1ccc(Cl)cc1)c1cc(Br)ccc1O`?
Answer: T/C [1]: 92 % of control; T/C [2]: 88 % of control; T/C [3]: 92 % of control
